US11591365B2, “BCL9 peptides and variants thereof” (WntRx Pharmaceuticals Inc., priority 2017, dated 2023)
Where a SMILES comes first, the peptide text is derived from it. Bridges are numbered along the chain shown (N, C = ends). [ ]: non-standard residue; d: D form. The star is where a group is joined. 2Nal = N[C@@H](Cc1ccc2ccccc2c1)C(=O)O; NMeR = CN[C@@H](CCCNC(=N)N)C(=O)O; Palmitoyl = CCCCCCCCCCCCCCCC(=O)*; hArg = N=C(N)NCCCC[C@H](N)C(=O)O; NMeQ = CN[C@@H](CCC(N)=O)C(=O)O; Cha = N[C@@H](CC1CCCCC1)C(=O)O; dCha = N[C@H](CC1CCCCC1)C(=O)O; Cba = N[C@@H](CC1CCC1)C(=O)O; PEG4 = NCCOCCOCCOCCOCCC(=O)O; Tle = CC(C)(C)[C@H](N)C(=O)O; S5 = C=CCCC[C@](C)(N)C(=O)O

System: Colo320DM
Experiment: Colo320DM cell viability
Assay type: cell-based, human
Description: In some embodiments, a polypeptide described herein inhibits binding of BLC9 to β-catenin when assessed in a cell-viability assay. In some embodiments, the cell-viability assay is a CellTiterGlo luminescent assay, wherein the viability of cells is quantitatively measured. Various cell lines, transformed cell lines or primary cells derived from a healthy subject or subject suffering from a disease can be used in this assay.

| Compound | IC50 |
| --- | --- |
| CC[C@H](C)[C@@H]1NC(=O)[C@@](C)(NC(=O)[C@H](CCCNC(=N)N)NC(=O)[C@H](CC(C)C)NC(=O)[C@@H](NC(=O)[C@H](CCC(N)=O)NC(=O)[C@H](CC(C)C)NC(=O)[C@H](CO)NC(=O)[C@H](CCCNC(=N)N)N(C)C(=O)[C@H](CCC(N)=O)NC(=O)[C@H](CCCNC(=N)N)NC(=O)[C@H](Cc2c[nH]cn2)NC(C)=O)[C@@H](C)O)CCCC=CCCC[C@@](C)(C(=O)N[C@@H](CC2CCC2)C(=O)N[C@@H](Cc2ccc3ccccc3c2)C(N)=O)NC(=O)[C@H](CCCNC(=N)N)NC(=O)[C@H](CCC(N)=O)NC1=O [SEQ ID NO: 168, HRQ(N-methylR)SLQTLRXIQRX(CBA)(2-Nal)] (Ac-HRQ[NMeR]SLQTLR[S5]IQR[S5][Cba][2Nal]-NH2; staple 11-15; N-terminus and C-terminus assumed) | 4140 nM |
| CC[C@H](C)[C@@H]1NC(=O)[C@@](C)(NC(=O)[C@H](CCCNC(=N)N)NC(=O)[C@H](CC(C)C)NC(=O)[C@@H](NC(=O)[C@H](CCC(N)=O)NC(=O)[C@H](CC(C)C)NC(=O)[C@H](CO)NC(=O)[C@H](CCCNC(=N)N)NC(=O)[C@H](CCC(=O)O)NC(=O)[C@H](CCCNC(=N)N)NC(=O)[C@H](Cc2c[nH]cn2)NC(C)=O)[C@@H](C)O)CCCC=CCCC[C@@](C)(C(=O)N[C@@H](CC2CCC2)C(=O)N[C@@H](Cc2ccc3ccccc3c2)C(N)=O)NC(=O)[C@H](CCCNC(=N)N)NC(=O)[C@H](CCC(N)=O)NC1=O [SEQ ID NO: 14, HRERSLQTLRXIQRX(CBA)(2-Nal)] (Ac-HRERSLQTLR[S5]IQR[S5][Cba][2Nal]-NH2; staple 11-15) | 1490 nM |
| CC[C@H](C)[C@@H]1NC(=O)[C@@](C)(NC(=O)[C@H](CCCNC(=N)N)NC(=O)[C@H](CC(C)C)NC(=O)[C@@H](NC(=O)[C@H](CCC(N)=O)NC(=O)[C@H](CC(C)C)NC(=O)[C@H](CO)NC(=O)[C@H](CCCNC(=N)N)NC(=O)[C@H](CCC(N)=O)NC(=O)[C@H](CCCNC(=N)N)NC(=O)[C@H](Cc2c[nH]cn2)NC(C)=O)[C@@H](C)O)CCCC=CCCC[C@@](C)(C(=O)N[C@H](C(=O)N[C@@H](Cc2ccc3ccccc3c2)C(N)=O)C(C)(C)C)NC(=O)[C@H](CCCNC(=N)N)NC(=O)[C@H](CCC(N)=O)NC1=O [SEQ ID NO: 192, HRQRSLQTLRXIQRX(Tle)(2-Nal)] (Ac-HRQRSLQTLR[S5]IQR[S5][Tle][2Nal]-NH2; staple 11-15) | 2590 nM |
| CC[C@H](C)[C@@H]1NC(=O)[C@@](C)(NC(=O)[C@H](CCCNC(=N)N)NC(=O)[C@H](CC(C)C)NC(=O)[C@@H](NC(=O)[C@H](CCC(N)=O)NC(=O)[C@H](CC(C)C)NC(=O)[C@H](CO)NC(=O)[C@H](CCCCNC(=N)N)NC(=O)[C@H](CCC(N)=O)NC(=O)[C@H](CCCNC(=N)N)NC(=O)[C@H](Cc2c[nH]cn2)NC(C)=O)[C@@H](C)O)CCCC=CCCC[C@@](C)(C(=O)N[C@@H](CC2CCC2)C(=O)N[C@@H](Cc2ccc3ccccc3c2)C(N)=O)NC(=O)[C@H](CCCNC(=N)N)NC(=O)[C@H](CCC(N)=O)NC1=O [SEQ ID NO: 167, HRQ(homoR)SLQTLRXIQRX(CBA)(2-Nal)] (Ac-HRQ[hArg]SLQTLR[S5]IQR[S5][Cba][2Nal]-NH2; staple 11-15) | 4760 nM |
| CC[C@H](C)[C@@H]1NC(=O)[C@@](C)(NC(=O)[C@H](CCCNC(=N)N)NC(=O)[C@H](CC(C)C)NC(=O)[C@@H](NC(=O)[C@H](CCC(N)=O)N(C)C(=O)[C@@H](CC2CCCCC2)NC(=O)[C@H](CO)NC(=O)[C@H](CCCNC(=N)N)NC(=O)[C@H](CCC(N)=O)NC(=O)[C@H](CCCNC(=N)N)NC(=O)[C@H](Cc2c[nH]cn2)NC(C)=O)[C@@H](C)O)CCCC=CCCC[C@@](C)(C(=O)N[C@@H](CC2CCCCC2)C(=O)N[C@@H](Cc2ccc3ccccc3c2)C(N)=O)NC(=O)[C@H](CCCNC(=N)N)NC(=O)[C@H](CCC(N)=O)NC1=O [SEQ ID NO: 187, HRQRSD(Cha)(N-MeGln)TLRXIQRX(Cha)(2-Nal)] (Ac-HRQRS[dCha][NMeQ]TLR[S5]IQR[S5][Cha][2Nal]-NH2; staple 11-15; N-terminus and C-terminus assumed) | 2180 nM |
| CC[C@H](C)[C@@H]1NC(=O)[C@@](C)(NC(=O)[C@H](CCCNC(=N)N)NC(=O)[C@H](CC(C)C)NC(=O)[C@@H](NC(=O)[C@H](CCC(N)=O)NC(=O)[C@H](CC(C)C)NC(C)=O)[C@@H](C)O)CCCC=CCCC[C@@](C)(C(=O)N[C@@H](CC2CCC2)C(=O)N[C@@H](Cc2ccc3ccccc3c2)C(N)=O)NC(=O)[C@H](CCCNC(=N)N)NC(=O)[C@H](CCC(N)=O)NC1=O [SEQ ID NO: 107, LQTLRXIQRX(CBA)(2-Nal)] (Ac-LQTLR[S5]IQR[S5][Cba][2Nal]-NH2; staple 6-10) | > 5000 nM |
| CC[C@H](C)[C@@H]1NC(=O)[C@@](C)(NC(=O)[C@H](CCCNC(=N)N)NC(=O)[C@H](CC(C)C)NC(=O)[C@]2(C)CCCC=CCCC[C@](C)(NC(=O)[C@H](CCC(=O)O)NC(=O)[C@H](CCCNC(=N)N)NC(C)=O)C(=O)N[C@@H](CO)C(=O)N[C@@H](CC(C)C)C(=O)N[C@@H](CCC(N)=O)C(=O)N2)CCCC=CCCC[C@@](C)(C(=O)N[C@@H](CC(C)C)C(=O)N[C@@H](Cc2ccc3ccccc3c2)C(N)=O)NC(=O)[C@H](CCCNC(=N)N)NC(=O)[C@H](CCC(N)=O)NC1=O [SEQ ID NO: 39, REXSLQXLRZIQRZL(2-Nal)] (Ac-RE[S5]SLQ[S5]LR[S5]IQR[S5]L[2Nal]-NH2; staple 3-7, 10-14) | 560 nM |
| CC[C@H](C)[C@@H]1NC(=O)[C@@](C)(NC(=O)[C@H](CCCNC(=N)N)NC(=O)[C@H](CC(C)C)NC(=O)[C@@H](NC(=O)[C@H](CCC(N)=O)NC(=O)[C@H](CC(C)C)NC(=O)[C@H](CO)NC(=O)[C@H](CCCNC(=N)N)NC(=O)[C@H](CCC(=O)O)NC(=O)[C@H](CCCNC(=N)N)NC(=O)[C@H](Cc2c[nH]cn2)NC(C)=O)[C@@H](C)O)CCCC=CCCC[C@@](C)(C(=O)N[C@@H](CC2CCC2)C(=O)N[C@@H](Cc2ccc3ccccc3c2)C(N)=O)NC(=O)[C@H](C)NC(=O)[C@H](CCC(N)=O)NC1=O [SEQ ID NO: 29, HRERSLQTLRXIQAX(CBA)(2-Nal)] (Ac-HRERSLQTLR[S5]IQA[S5][Cba][2Nal]-NH2; staple 11-15) | 2680 nM |
| CCCCCCCCCCCCCCCC(=O)NCCOCCOCCOCCOCCC(=O)N[C@@H](Cc1c[nH]cn1)C(=O)N[C@@H](CCCNC(=N)N)C(=O)N[C@@H](CCC(N)=O)C(=O)N[C@@H](CCCNC(=N)N)C(=O)N[C@@H](CO)C(=O)N[C@@H](CC(C)C)C(=O)N[C@@H](CCC(N)=O)C(=O)N[C@H](C(=O)N[C@@H](CC(C)C)C(=O)N[C@@H](CCCNC(=N)N)C(=O)N[C@@]1(C)CCCC=CCCC[C@@](C)(C(=O)N[C@@H](CC2CCC2)C(=O)N[C@@H](Cc2ccc3ccccc3c2)C(N)=O)NC(=O)[C@H](CCCNC(=N)N)NC(=O)[C@H](CCC(N)=O)NC(=O)[C@H]([C@@H](C)CC)NC1=O)[C@@H](C)O [SEQ ID NO: 160, HRQRSLQTLRXIQRX(CBA)(2-Nal)] ({Palmitoyl-PEG4}-HRQRSLQTLR[S5]IQR[S5][Cba][2Nal]-NH2; staple 11-15) | 830 nM |
| CC[C@H](C)[C@@H]1NC(=O)[C@@](C)(NC(=O)[C@H](CCCNC(=N)N)NC(=O)[C@H](CC(C)C)NC(=O)[C@@H](NC(=O)[C@H](CCC(N)=O)NC(=O)[C@H](CC(C)C)NC(=O)[C@H](CO)NC(=O)[C@H](CCCNC(=N)N)NC(=O)[C@H](CCC(N)=O)NC(=O)[C@H](CCCNC(=N)N)N(C)C(=O)[C@H](Cc2c[nH]cn2)NC(C)=O)[C@@H](C)O)CCCC=CCCC[C@@](C)(C(=O)N[C@@H](CC2CCC2)C(=O)N[C@@H](Cc2ccc3ccccc3c2)C(N)=O)NC(=O)[C@H](CCCNC(=N)N)NC(=O)[C@H](CCC(N)=O)NC1=O (single isomer, unassigned) [SEQ ID NO: 166, H(N-methylR)QRSLQTLRXIQRX(CBA)(2-Nal)] | 4170 nM |
| CC[C@H](C)[C@@H]1NC(=O)[C@@](C)(NC(=O)[C@H](CCCNC(=N)N)NC(=O)[C@H](CC(C)C)NC(=O)[C@@H](NC(=O)[C@H](CCC(N)=O)NC(=O)[C@H](CC(C)C)NC(=O)[C@H](CO)NC(=O)[C@H](CCCNC(=N)N)NC(=O)[C@H](CCC(=O)O)NC(=O)[C@H](CCCNC(=N)N)NC(C)=O)[C@@H](C)O)CCCC=CCCC[C@@](C)(C(=O)N[C@@H](CC(C)C)C(=O)N[C@@H](Cc2ccc3ccccc3c2)C(N)=O)NC(=O)[C@H](CCCNC(=N)N)NC(=O)[C@H](CCC(N)=O)NC1=O [SEQ ID NO: 5, RERSLQTLRXIQRXL(2-Nal)] (Ac-RERSLQTLR[S5]IQR[S5]L[2Nal]-NH2; staple 10-14) | 6800 nM |
| CC[C@H](C)[C@@H]1NC(=O)[C@@](C)(NC(=O)[C@H](CCCNC(=N)N)NC(=O)[C@H](CC(C)C)NC(=O)[C@@H](NC(=O)[C@H](CCC(N)=O)NC(=O)[C@H](CC(C)C)NC(=O)[C@H](CO)NC(=O)[C@H](CCCNC(=N)N)NC(=O)[C@H](CCC(=O)O)NC(=O)[C@H](CCCNC(=N)N)NC(=O)[C@H](Cc2c[nH]cn2)NC(C)=O)[C@@H](C)O)CCCC=CCCC[C@@](C)(C(=O)N[C@@H](CC(C)C)C(=O)N[C@@H](Cc2ccc3ccccc3c2)C(N)=O)NC(=O)[C@H](C)NC(=O)[C@H](CCC(N)=O)NC1=O [SEQ ID NO: 28, HRERSLQTLRXIQAXL(2-Nal)] (Ac-HRERSLQTLR[S5]IQA[S5]L[2Nal]-NH2; staple 11-15) | 3240 nM |
| CC[C@H](C)[C@@H]1NC(=O)[C@@](C)(NC(=O)[C@H](CCCNC(=N)N)NC(=O)[C@H](CC(C)C)NC(=O)[C@]2(C)CCCC=CCCC[C@](C)(NC(=O)[C@H](CCC(=O)O)NC(=O)[C@H](CCCNC(=N)N)NC(=O)[C@@H](N)Cc3c[nH]cn3)C(=O)N[C@@H](CO)C(=O)N[C@@H](CC(C)C)C(=O)N[C@@H](CCC(N)=O)C(=O)N2)CCCC=CCCC[C@@](C)(C(=O)N[C@@H](CC2CCC2)C(=O)N[C@@H](Cc2ccc3ccccc3c2)C(=O)O)NC(=O)[C@H](CCCNC(=N)N)NC(=O)[C@H](CCC(N)=O)NC1=O [SEQ ID NO: 82, HREXSLQXLRZIQRZ(CBA)(2-Nal)] (H-HRE[S5]SLQ[S5]LR[S5]IQR[S5][Cba][2Nal]-OH; staple 4-8, 11-15) | > 5000 nM |
